# Test results as given in patent publication US5218123A, “Didehydrotryptophan derivatives and pharmaceutical use thereof” (Warner-Lambert Company, priority 1992, dated 1993).
# Test system: hyperactivity caused by the injection of amphetamine into the nucleus accumbens of the rat
# Test: Reduction of hyperactivity caused by intra-accumbens amphetamine (locomotor activity, antipsychotic test)
# Type: in vivo, rat (male Sprague Dawley (CD) Bradford strain)
# Settings: bilateral injection of amphetamine (20 μg) into the nucleus accumbens, 20 to 40 minutes after injection
# Method: The compounds of the instant invention are useful as antipsychotic agents. The compounds are tested for their ability to reduce the effects of intra-accumbens amphetamine in the rat as described hereinafter.
# Male Sprague Dawley (CD) Bradford strain rats are used. The rats are housed in groups of five at a temperature of 21°±2° C. on a 12-hour light-dark cycle of lights-on between 07 hours 00 minutes and 20 hours 00 minutes. Rats are fed CRM diet (Labsure) and allowed water ad libitum.
# Rats are anesthetized with chloral hydrate (400 mg/kg^-1 SC) and placed in a Kopf stereotaxic frame. Chronically indwelling guide cannulae (constructed of stainless steel tubing 0.65 mm diameter held bilaterally on Parspex holders) are implanted using standard stereotaxic techniques to terminate 3.5 mm above the center of the nucleus accumbens (Ant. 9.4, Vert. 0.0, Lat. 1.6) or 5.0 mm above the central nucleus of the amygdala (Ant. 5.8, Vert. -1.8, lat. ±4.5) (atlas of De Groot, 1959). The guides are kept patent during a 14 day recovery period using stainless steel stylets, 0.3 mm diameter, which extend 0.5 mm beyond the guide tips.
# Rats are manually restrained and the stylets removed. […]
# The abilities of the compounds (20) and (20A) to inhibit the hyperactivity caused by the injection of amphetamine into the nucleus accumbens of the rat is measured. […]
row,Structure (SMILES),peak hyperactivity [counts 5 minutes^-1]
1,CC(N)Cc1ccccc1 (stereo not shown) [amphetamine],50 to 60

# Biological target: T1, Central CCK-B Receptors (Mus musculus, UniProt P56481)
# T1 construct: from tissue; host or cells: cerebral cortex membranes of male CFLP mice (30 to 40 g)
# T1 sequence (P56481 1-453): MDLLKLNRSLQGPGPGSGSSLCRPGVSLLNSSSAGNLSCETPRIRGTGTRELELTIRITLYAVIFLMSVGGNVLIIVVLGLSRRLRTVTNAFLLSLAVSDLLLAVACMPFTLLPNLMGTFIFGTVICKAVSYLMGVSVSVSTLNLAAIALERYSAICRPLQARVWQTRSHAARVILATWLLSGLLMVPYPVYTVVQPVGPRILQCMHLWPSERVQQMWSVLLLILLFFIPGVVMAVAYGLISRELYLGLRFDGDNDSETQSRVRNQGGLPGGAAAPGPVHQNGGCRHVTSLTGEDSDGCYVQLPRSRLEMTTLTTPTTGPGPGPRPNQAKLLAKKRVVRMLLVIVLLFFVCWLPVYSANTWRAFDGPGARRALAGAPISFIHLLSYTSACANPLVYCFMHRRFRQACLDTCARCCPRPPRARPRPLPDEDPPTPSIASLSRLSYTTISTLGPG
# Test: Binding to central CCK-B receptors: displacement of tritiated-pentagastrin from cerebral cortical membranes
# Set-up: species or system mouse (male CFLP mice)
# Settings: tritiated-pentagastrin 2 nM, 23° C., pH 7.2
# Method: The biological activity of compounds of the present invention was evaluated employing an initial screening test which rapidly and accurately measured the binding of the tested compound to known CCK receptor sites. […] (See Hays, et al, Neuropeptides 1:53-62, 1980; and Satuer et al, Science 208:1155-1156, 1980.)
# In this screening test, the cerebral cortices taken from male CFLP mice weighing between 30 to 40 g were dissected on ice, weighed, and homogenized in 10 volumes of 50 mM Tris-HCl buffer (pH 7.4 at 0°-4° C.). The resulting suspension was centrifuged, the supernate was discarded, and the pellet was washed by resuspension in Tris-HCl buffer followed by recentrifugation. The final pellet was resuspended in 20 volumes of […] buffer (pH 7.2 at 23° C.) containing 130 mM NaCl, […], […], […], 5 mg/mL bovine albumin, and bacitracin (0.25 mg/mL).
# In saturation studies, cerebral cortical membranes were incubated at 23° C. for 120 minutes in a final volume of 500 μL of Hepes incubation buffer (pH 7.2) together with 0.2-20 nM tritiated-pentagastrin (Amersham International, England).
# In the displacement experiments, membranes were incubated with a single concentration (2 nM) of ligand, together with increasing concentrations ([…] to 10^-4 M) of competitive test compound. In each case, the nonspecific binding was defined as that persisting in the presence of the unlabeled octapeptide CCK26-33 (10^-6 M).
# Following incubation, radioactivity bound to membranes was separated from that free in solution by rapid filtration through Whatman GF/B filters and washed three times with 4 mL of ice cold Tris-HCl buffer. Filters from samples incubated with tritiated pentagastrin were placed in polyethylene vials with 4 mL of scintillation cocktail, and the radioactivity was estimated by liquid scintillation spectrometry (efficiency 47% to 52%).
# The specific binding to CCK receptor sites was defined as the total bound tritiated-pentagastrin minus the amount of tritiated-pentagastrin bound in the presence of 10^-6 octapeptide, CCK26-33.
# Saturation curves for specific tritiated-pentagastrin binding to mouse cortical membranes were analyzed by the methods of Scatchard (Ann. New York Acad. Sci. 51:660-672, 1949), and Hill (J. Physiol. 40:IV-VIII, 1910), to provide estimates for the maximum number of binding sites (Bmax) and the equilibrium dissociation constant (Ka).
# In displacement experiments, inhibition curves were analyzed by either logit-log plots or the iterative curve fitting computer program ALLFIT (DeLean, Munson, and Redbard, 1978) to provide estimates of the IC50 and nH (apparent Hill coefficient values). (IC50 values were defined as the concentration of test compound required to produce 50% inhibition of specific binding.)
# The inhibition constant (Ki) of the test compound was then calculated according to the Cheng Prusoff equation: [formula] where [L]is the concentration of radiolabel and Ka is the equilibrium dissociation constant.
# ^a Binding affinity protocol Horwell, et al, J. Med. Chem. 34:404,
row,Structure (SMILES),Ki [nM]
1,"O=C(N/C(=C\c1c[nH]c2ccccc12)C(=O)NCCc1ccccn1)OC1C2CC3CC(C2)CC1C3 (stereo not shown) [Example 3, Tricyclo[3.3.1.1^3,7]dec-2-yl (Z)-[1-(1H-indol-3-ylmethylene) -2-oxo-2-[[2-(2-pyridinyl)ethyl]amino]ethyl]carbamate]",507
2,"O=C(O)C[C@H](Cc1ccccc1)NC(=O)/C(=C/c1c[nH]c2ccccc12)NC(=O)OC1C2CC3CC(C2)CC1C3 (stereo partly drawn) [Example 2, (Z)-N-[α,β-Didehydro-N-[(tricyclo[3.3.1.1^3,7]dec-2-yloxy)carbonyl]tryptophyl]-L -3-(phenylmethyl)-β-alanine]",13
3,"O=C(N/C(=C\c1c[nH]c2ccccc12)C(=O)NCCc1ccccc1)OC1C2CC3CC(C2)CC1C3 (stereo not shown) [Example 1, Carbamic acid, [1-(1H-indol-3-ylmethylene)-2-oxo-2-[(2-phenylethyl)amino]ethyl]-, tricyclo[3.3.1.1^3,7]dec-2-yl ester, (Z)-]",1520
4,"COC(=O)CC(=O)Nc1ccccc1CCNC(=O)/C(=C/c1c[nH]c2ccccc12)NC(=O)OC1C2CC3CC(C2)CC1C3 (stereo not shown) [4, step 2]",616
5,"O=C(O)C[C@H](Cc1ccccc1)NC(=O)C(=Cc1c[nH]c2ccccc12)NC(=O)OC1C2CC3CC(C2)CC1C3 (mixture of isomers) [Example 5, (E/Z)-N-[α,β-Didehydro-N-[(tricyclo[3.3.1.1^3,7]dec-2-yloxy)carbonyl]tryptophyl]-L-3-(phenylmethyl)-β-alanine]",0.3
6,"O=C(O)CC(=O)Nc1ccccc1CCNC(=O)/C(=C/c1c[nH]c2ccccc12)NC(=O)OC1C2CC3CC(C2)CC1C3 (stereo not shown) [Example 4, (Z)-3-[[2-[2-[[3-(1H-indol-3-yl)-1-oxo-2-[[(tricyclo[3.3.1.1^3,7]dec-2-yloxy)carbonyl]amino]-2-propenyl]amino]ethyl]phenyl]amino]-3-oxopropanoic acid]",209
